In brackets after ≈: the same amount, converted by molar mass.
What was measured:
Assay type in all cases: functional
Serratia marcescens [1] = assay: Antimicrobial activity against Serratia marcescens by disk diffusion method
Priestia megaterium [2] = assay: Antimicrobial activity against Bacillus megaterium by disk diffusion method
Serratia marcescens [3] = assay: Antimicrobial activity against Serratia marcescens at 10 ug/disk by disk diffusion method; conditions: read-out: DIZ
Klebsiella pneumoniae [4] = assay: Antimicrobial activity against Klebsiella pneumoniae at 20 ug/disk by disk diffusion method; conditions: read-out: DIZ
Proteus vulgaris [5] = assay: Antimicrobial activity against Proteus vulgaris by disk diffusion method
Klebsiella pneumoniae [6] = assay: Antimicrobial activity against Klebsiella pneumoniae by disk diffusion method
Aspergillus oryzae [7] = assay: Antimicrobial activity against Aspergillus oryzae at 10 ug/disk by disk diffusion method; conditions: read-out: DIZ
Citrobacter freundii [8] = assay: Antimicrobial activity against Citrobacter freundii at 20 ug/disk by disk diffusion method; conditions: read-out: DIZ
Micrococcus luteus [9] = assay: Antimicrobial activity against Micrococcus luteus by disk diffusion method
Salmonella typhi [10] = assay: Antimicrobial activity against Salmonella enterica subsp. enterica serovar Typhi by disk diffusion method
Pseudomonas aeruginosa [11] = assay: Antimicrobial activity against Pseudomonas aeruginosa at 40 ug/disk by disk diffusion method; conditions: read-out: DIZ
Fusarium verticillioides [12] = assay: Antimicrobial activity against Fusarium verticillioides at 40 ug/disk by disk diffusion method; conditions: read-out: DIZ
Escherichia coli [13] = assay: Antimicrobial activity against Escherichia coli by disk diffusion method
Aspergillus niger [14] = assay: Antimicrobial activity against Aspergillus niger at 50 ug/disk by disk diffusion method; conditions: read-out: DIZ
Candida albicans [15] = assay: Antimicrobial activity against Candida albicans at 40 ug/disk by disk diffusion method; conditions: read-out: DIZ
Proteus vulgaris [16] = assay: Antimicrobial activity against Proteus vulgaris at 10 ug/disk by disk diffusion method; conditions: read-out: DIZ
Priestia megaterium [17] = assay: Antimicrobial activity against Bacillus megaterium at 10 ug/disk by disk diffusion method; conditions: read-out: DIZ
Escherichia coli [18] = assay: Antimicrobial activity against Escherichia coli at 10 ug/disk by disk diffusion method; conditions: read-out: DIZ
Pseudomonas aeruginosa [19] = assay: Antimicrobial activity against Pseudomonas aeruginosa by disk diffusion method
Citrobacter freundii [20] = assay: Antimicrobial activity against Citrobacter freundii by disk diffusion method
Micrococcus luteus [21] = assay: Antimicrobial activity against Micrococcus luteus at 10 ug/disc by disk diffusion method; conditions: read-out: DIZ
Salmonella typhi [22] = assay: Antimicrobial activity against Salmonella enterica subsp. enterica serovar Typhi at 10 ug/disk by disk diffusion method; conditions: read-out: DIZ
Klebsiella pneumoniae [23] = assay: Antimicrobial activity against Klebsiella pneumoniae at 10 ug/disk by disk diffusion method; conditions: read-out: DIZ
Aspergillus niger [24] = assay: Antimicrobial activity against Aspergillus niger at 10 ug/disk by disk diffusion method; conditions: read-out: DIZ
Pseudomonas aeruginosa [25] = assay: Antimicrobial activity against Pseudomonas aeruginosa at 10 ug/disk by disk diffusion method; conditions: read-out: DIZ
Fusarium verticillioides [26] = assay: Antimicrobial activity against Fusarium verticillioides at 20 ug/disk by disk diffusion method; conditions: read-out: DIZ
Candida albicans [27] = assay: Antimicrobial activity against Candida albicans at 20 ug/disk by disk diffusion method; conditions: read-out: DIZ
Citrobacter freundii [28] = assay: Antimicrobial activity against Citrobacter freundii at 10 ug/disk by disk diffusion method; conditions: read-out: DIZ
Candida albicans [29] = assay: Antimicrobial activity against Candida albicans at 10 to 60 ug/disk by disk diffusion method
Citrobacter freundii [30] = assay: Antimicrobial activity against Citrobacter freundii at 10 to 60 ug/disk by disk diffusion method
Pseudomonas aeruginosa [31] = assay: Antimicrobial activity against Pseudomonas aeruginosa at 10 to 60 ug/disk by disk diffusion method
Aspergillus oryzae [32] = assay: Antimicrobial activity against Aspergillus oryzae at 10 to 60 ug/disk by disk diffusion method
Serratia marcescens [33] = assay: Antimicrobial activity against Serratia marcescens at 10 to 60 ug/disk by disk diffusion method
Fusarium verticillioides [34] = assay: Antimicrobial activity against Fusarium verticillioides at 10 to 60 ug/disk by disk diffusion method
Escherichia coli [35] = assay: Antimicrobial activity against Escherichia coli at 10 to 60 ug/disk by disk diffusion method
Priestia megaterium [36] = assay: Antimicrobial activity against Bacillus megaterium at 10 to 60 ug/disk by disk diffusion method
Salmonella typhi [37] = assay: Antimicrobial activity against Salmonella enterica subsp. enterica serovar Typhi at 10 to 60 ug/disk by disk diffusion method
Aspergillus niger [38] = assay: Antimicrobial activity against Aspergillus niger at 10 to 60 ug/disk by disk diffusion method
Proteus vulgaris [39] = assay: Antimicrobial activity against Proteus vulgaris at 10 to 60 ug/disk by disk diffusion method
Klebsiella pneumoniae [40] = assay: Antimicrobial activity against Klebsiella pneumoniae at 10 to 60 ug/disk by disk diffusion method
Micrococcus luteus [41] = assay: Antimicrobial activity against Micrococcus luteus at 10 to 60 ug/disc by disk diffusion method

Compound	MIC (Serratia marcescens [1]) [µg/mL]	MIC (Priestia megaterium [2]) [µg/mL]	zone of inhibition at 10 µg/disc (Serratia marcescens [3]) [mm]	MIC (Proteus vulgaris [5]) [µg/mL]	MIC (Klebsiella pneumoniae [6]) [µg/mL]	zone of inhibition at 10 µg/disc (Aspergillus oryzae [7]) [mm]	MIC (Micrococcus luteus [9]) [µg/mL]	diameter of the inhibition zone (DIZ) (Candida albicans [29]) [mm]	diameter of the inhibition zone (DIZ) (Citrobacter freundii [30]) [mm]	diameter of the inhibition zone (DIZ) (Pseudomonas aeruginosa [31]) [mm]	diameter of the inhibition zone (DIZ) (Aspergillus oryzae [32]) [mm]	diameter of the inhibition zone (DIZ) (Serratia marcescens [33]) [mm]	diameter of the inhibition zone (DIZ) (Fusarium verticillioides [34]) [mm]	diameter of the inhibition zone (DIZ) (Escherichia coli [35]) [mm]	diameter of the inhibition zone (DIZ) (Priestia megaterium [36]) [mm]	diameter of the inhibition zone (DIZ) (Salmonella typhi [37]) [mm]	diameter of the inhibition zone (DIZ) (Aspergillus niger [38]) [mm]	diameter of the inhibition zone (DIZ) (Proteus vulgaris [39]) [mm]	diameter of the inhibition zone (DIZ) (Klebsiella pneumoniae [40]) [mm]	diameter of the inhibition zone (DIZ) (Micrococcus luteus [41]) [mm]	further results
O=C(/C=C/c1ccc[nH]1)c1ccccc1	10 (≈ 50.7 µM)	10 (≈ 50.7 µM)	7	10 (≈ 50.7 µM)	10 (≈ 50.7 µM)	9	10 (≈ 50.7 µM)														zone of inhibition at 20 µg/disc (Klebsiella pneumoniae [4]): 9 mm; zone of inhibition at 20 µg/disc (Citrobacter freundii [8]): 9 mm; MIC (Salmonella typhi [10]): 10 µg/mL (≈ 50.7 µM); zone of inhibition at 40 µg/disc (Pseudomonas aeruginosa [11]): 9 mm; zone of inhibition at 40 µg/disc (Fusarium verticillioides [12]): 6 mm; MIC (Escherichia coli [13]): 10 µg/mL (≈ 50.7 µM); zone of inhibition at 50 µg/disc (Aspergillus niger [14]): 8 mm; zone of inhibition at 40 µg/disc (Candida albicans [15]): 7 mm; zone of inhibition at 10 µg/disc (Proteus vulgaris [16]): 5 mm; zone of inhibition at 10 µg/disc (Priestia megaterium [17]): 12 mm; zone of inhibition at 10 µg/disc (Escherichia coli [18]): 6 mm; MIC (Pseudomonas aeruginosa [19]): 10 µg/mL (≈ 50.7 µM); MIC (Citrobacter freundii [20]): 10 µg/mL (≈ 50.7 µM); zone of inhibition at 10 µg/disc (Micrococcus luteus [21]): 7 mm; zone of inhibition at 10 µg/disc (Salmonella typhi [22]): 5 mm
O=C(/C=C/c1ccccc1)c1ccco1	10 (≈ 50.4 µM)	10 (≈ 50.4 µM)	5	10 (≈ 50.4 µM)	10 (≈ 50.4 µM)	8	10 (≈ 50.4 µM)														zone of inhibition at 10 µg/disc (Klebsiella pneumoniae [23]): 7 mm; zone of inhibition at 10 µg/disc (Aspergillus niger [24]): 11 mm; MIC (Salmonella typhi [10]): 10 µg/mL (≈ 50.4 µM); MIC (Escherichia coli [13]): 10 µg/mL (≈ 50.4 µM); zone of inhibition at 10 µg/disc (Proteus vulgaris [16]): 8 mm; zone of inhibition at 10 µg/disc (Priestia megaterium [17]): 11 mm; zone of inhibition at 10 µg/disc (Escherichia coli [18]): 5 mm; MIC (Pseudomonas aeruginosa [19]): 10 µg/mL (≈ 50.4 µM); zone of inhibition at 10 µg/disc (Pseudomonas aeruginosa [25]): 5 mm; MIC (Citrobacter freundii [20]): 10 µg/mL (≈ 50.4 µM); zone of inhibition at 20 µg/disc (Fusarium verticillioides [26]): 7 mm; zone of inhibition at 20 µg/disc (Candida albicans [27]): 7 mm; zone of inhibition at 10 µg/disc (Micrococcus luteus [21]): 11 mm; zone of inhibition at 10 µg/disc (Citrobacter freundii [28]): 13 mm; zone of inhibition at 10 µg/disc (Salmonella typhi [22]): 5 mm
OC(/C=C/c1ccco1)(c1ccccc1)C(O)(/C=C/c1ccco1)c1ccccc1 (stereo not drawn)								5	9	5	5	5	7	5	7	5	9	9	5	6	
OC(/C=C/c1ccc[nH]1)(c1ccccc1)C(O)(/C=C/c1ccc[nH]1)c1ccccc1 (stereo not drawn)								5	5	5	9	5	5	5	5	5	5	5	5	5	
OC(/C=C/c1cccs1)(c1ccccc1)C(O)(/C=C/c1cccs1)c1ccccc1 (stereo not drawn)								5	5	5	5	5	5	5	5	7	5	5	7	8	

Source: ChEMBL document CHEMBL3046652, “Photodimerization of heteroaryl chalcones: comparative antimicrobial activities of chalcones and their photoproducts” (2012)
